Assays:
Assay type in all cases: in vivo
[1] = tested on: sprangletop (bearded (i.e. Brdd.) sprangletop, Leptochloa fascicularis); assay: Test E flooded paddy rice and weeds; settings: applied to paddy water, 21 days, scale 0 to 100
Procedure, shortened: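 Visual ratings (0 = no effect, 100 = complete control), taken 21 days after treatment against untreated pots. Treatment was by application to paddy water kept 3 cm above the soil, at the 2.0 to 2.5-leaf stage. Grown under 30/27° C, 16-hour photoperiod.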

[2] = tested on: bluegrass (annual bluegrass, Poa annua); assay: Test C plant response; settings: Preemergence, scale 0 to 100
[3] = tested on: blackgrass (Alopecurus myosuroides); assay: Test C plant response; settings: Preemergence, scale 0 to 100
[4] = tested on: canarygrass (Phalaris minor); assay: Test C plant response; settings: Preemergence, 125 g ai/ha; scale 0 to 100
[5] = tested on: chickweed (common chickweed, Stellaria media); assay: Test C plant response; settings: Preemergence, 125 g ai/ha; scale 0 to 100
[6] = tested on: galium (catchweed bedstraw, Galium aparine); assay: Test C plant response; settings: Preemergence, scale 0 to 100
[7] = tested on: bromegrass (downy bromegrass, Bromus tectorum); assay: Test C plant response; settings: Preemergence, scale 0 to 100
[8] = tested on: field violet (Viola arvensis); assay: Test C plant response; settings: Preemergence, scale 0 to 100
[9] = tested on: green foxtail (Setaria viridis); assay: Test C plant response; settings: Preemergence, scale 0 to 100
[10] = tested on: deadnettle (henbit deadnettle, Lamium amplexicaule); assay: Test C plant response; settings: Preemergence, scale 0 to 100
[11] = tested on: Italian ryegrass (Lolium multiflorum); assay: Test C plant response; settings: Preemergence, scale 0 to 100
[12] = tested on: kochia (Kochia scoparia); assay: Test C plant response; settings: Preemergence, scale 0 to 100
[13] = tested on: oilseed rape (Brassica napus); assay: Test C plant response; settings: Preemergence, scale 0 to 100
[14] = tested on: pigweed (Amaranthus retroflexus); assay: Test C plant response; settings: Preemergence, scale 0 to 100
[15] = tested on: Russian thistle (Salsola iberica); assay: Test C plant response; settings: Preemergence, scale 0 to 100
[16] = tested on: spring barley (Hordeum vulgare); assay: Test C plant response; settings: Preemergence, scale 0 to 100
[17] = tested on: buckwheat (wild buckwheat, Polygonum convolvulus); assay: Test C plant response; settings: Preemergence, scale 0 to 100
[18] = tested on: wild mustard (Sinapis arvensis); assay: Test C plant response; settings: Preemergence, scale 0 to 100
[19] = tested on: wild oat (Avena fatua); assay: Test C plant response; settings: Preemergence, scale 0 to 100
[20] = tested on: wild radish (Raphanus raphanistrum); assay: Test C plant response; settings: Preemergence, scale 0 to 100
[21] = tested on: windgrass (Apera spica-venti); assay: Test C plant response; settings: Preemergence, scale 0 to 100
[22] = tested on: winter barley (Hordeum vulgare); assay: Test C plant response; settings: Preemergence, scale 0 to 100

SMILES: COc1ccc(-n2c(-c3ccccc3)ncc(C(=O)C3=C(O)CCCC3=O)c2=O)cc1OC [Compound 218]
- Plant response rating, Sprangletop, Brdd., Flood ([1]; 32 g ai/ha): 65
- Plant response rating, Sprangletop, Brdd., Flood ([1]; 64 g ai/ha): 70
- Plant response rating, Sprangletop, Brdd., Flood ([1]; 125 g ai/ha): 70
- Plant response rating, Sprangletop, Brdd., Flood ([1]; 250 g ai/ha): 95

SMILES: Cc1ccccc1-n1c(-c2ccccc2)ncc(C(=O)C2=C(O)CCCC2=O)c1=O [Compound 12]
- Plant response rating: Bluegrass ([2]; 62 g ai/ha): 20
- Plant response rating: Bluegrass ([2]; 125 g ai/ha): 35
- Plant response rating: Bluegrass ([2]; 16 g ai/ha): 0
- Plant response rating: Bluegrass ([2]; 31 g ai/ha): 0
- Plant response rating: Blackgrass ([3]; 62 g ai/ha): 0
- Plant response rating: Blackgrass ([3]; 125 g ai/ha): 0
- Plant response rating: Blackgrass ([3]; 16 g ai/ha): 0
- Plant response rating: Blackgrass ([3]; 31 g ai/ha): 0
- Plant response rating: Canarygrass [4]: 20
- Plant response rating: Chickweed [5]: 50
- Plant response rating: Galium ([6]; 62 g ai/ha): 35
- Plant response rating: Galium ([6]; 125 g ai/ha): 35
- Plant response rating: Galium ([6]; 16 g ai/ha): 0
- Plant response rating: Galium ([6]; 31 g ai/ha): 0
- Plant response rating: Bromegrass, Downy ([7]; 62 g ai/ha): 0
- Plant response rating: Bromegrass, Downy ([7]; 125 g ai/ha): 0
- Plant response rating: Bromegrass, Downy ([7]; 16 g ai/ha): 0
- Plant response rating: Bromegrass, Downy ([7]; 31 g ai/ha): 0
- Plant response rating: Field Violet ([8]; 62 g ai/ha): 0
- Plant response rating: Field Violet ([8]; 125 g ai/ha): 0
- Plant response rating: Field Violet ([8]; 16 g ai/ha): 0
- Plant response rating: Field Violet ([8]; 31 g ai/ha): 0
- Plant response rating: Foxtail, Green ([9]; 62 g ai/ha): 0
- Plant response rating: Foxtail, Green ([9]; 125 g ai/ha): 0
- Plant response rating: Foxtail, Green ([9]; 16 g ai/ha): 0
- Plant response rating: Foxtail, Green ([9]; 31 g ai/ha): 0
- Plant response rating: Deadnettle ([10]; 62 g ai/ha): 90
- Plant response rating: Deadnettle ([10]; 125 g ai/ha): 100
- Plant response rating: Deadnettle ([10]; 16 g ai/ha): 35
- Plant response rating: Deadnettle ([10]; 31 g ai/ha): 50
- Plant response rating: Ryegrass, Italian ([11]; 62 g ai/ha): 0
- Plant response rating: Ryegrass, Italian ([11]; 125 g ai/ha): 0
- Plant response rating: Ryegrass, Italian ([11]; 16 g ai/ha): 0
- Plant response rating: Ryegrass, Italian ([11]; 31 g ai/ha): 0
- Plant response rating: Kochia ([12]; 62 g ai/ha): 5
- Plant response rating: Kochia ([12]; 125 g ai/ha): 25
- Plant response rating: Kochia ([12]; 16 g ai/ha): 5
- Plant response rating: Kochia ([12]; 31 g ai/ha): 5
- Plant response rating: Oilseed Rape ([13]; 62 g ai/ha): 30
- Plant response rating: Oilseed Rape ([13]; 125 g ai/ha): 40
- Plant response rating: Oilseed Rape ([13]; 16 g ai/ha): 0
- Plant response rating: Oilseed Rape ([13]; 31 g ai/ha): 20
- Plant response rating: Pigweed ([14]; 62 g ai/ha): 50
- Plant response rating: Pigweed ([14]; 125 g ai/ha): 65
- Plant response rating: Pigweed ([14]; 16 g ai/ha): 0
- Plant response rating: Pigweed ([14]; 31 g ai/ha): 0
- Plant response rating: Russian Thistle ([15]; 62 g ai/ha): 0
- Plant response rating: Russian Thistle ([15]; 16 g ai/ha): 0
- Plant response rating: Russian Thistle ([15]; 31 g ai/ha): 0
- Plant response rating: Barley, Spring ([16]; 62 g ai/ha): 0
- Plant response rating: Barley, Spring ([16]; 125 g ai/ha): 0
- Plant response rating: Barley, Spring ([16]; 16 g ai/ha): 0
- Plant response rating: Barley, Spring ([16]; 31 g ai/ha): 0
- Plant response rating: Buckwheat, Wild ([17]; 62 g ai/ha): 0
- Plant response rating: Buckwheat, Wild ([17]; 125 g ai/ha): 40
- Plant response rating: Buckwheat, Wild ([17]; 16 g ai/ha): 0
- Plant response rating: Buckwheat, Wild ([17]; 31 g ai/ha): 0
- Plant response rating: Mustard, Wild ([18]; 62 g ai/ha): 5
- Plant response rating: Mustard, Wild ([18]; 16 g ai/ha): 0
- Plant response rating: Oat, Wild ([19]; 62 g ai/ha): 0
- Plant response rating: Oat, Wild ([19]; 125 g ai/ha): 0
- Plant response rating: Oat, Wild ([19]; 16 g ai/ha): 0
- Plant response rating: Oat, Wild ([19]; 31 g ai/ha): 0
- Plant response rating: Radish, Wild ([20]; 62 g ai/ha): 0
- Plant response rating: Radish, Wild ([20]; 125 g ai/ha): 0
- Plant response rating: Radish, Wild ([20]; 16 g ai/ha): 0
- Plant response rating: Radish, Wild ([20]; 31 g ai/ha): 0
- Plant response rating: Windgrass ([21]; 62 g ai/ha): 40
- Plant response rating: Windgrass ([21]; 125 g ai/ha): 40
- Plant response rating: Windgrass ([21]; 16 g ai/ha): 20
- Plant response rating: Windgrass ([21]; 31 g ai/ha): 20
- Plant response rating: Barley, Winter ([22]; 62 g ai/ha): 0
- Plant response rating: Barley, Winter ([22]; 125 g ai/ha): 0
- Plant response rating: Barley, Winter ([22]; 16 g ai/ha): 0
- Plant response rating: Barley, Winter ([22]; 31 g ai/ha): 0
